The test system of data set [1] is melb-a cells (melanoblasts). Kind of data set: cells. The class given is cell-based. The conditions noted are these: for fold induction at 1 µM / fold induction at 10 µM / fold induction at 100 µM: read-out: Increase of cell migration rate compared to negative control.
In data set [2] the test system is Melb-a (melanoblast) cells. The experiment in a line: cells. It is filed as cell-based.
The subject of data set [3] is Melb-a (melanoblast) cells.
The mark [4] stands for this setting: 24 h, read-out: Cell migration rate (%).
Setting [5] is: 96 h, read-out: Melanin content compared to negative control (%).

Each structure is given as a SMILES string. Like-named read-outs stand apart in the source and are kept apart here.

On to `O=Cc1ccc(C(=O)NCc2ccccc2)o1` [Example 4, N-benzyl-5-formylfuran-2-carboxamide], for which the activity at 10 µM in data set [1] (setting [4]) worked out at 115 ± 19.5%; in data set [2] (setting [5]), 97.4 ± 4.47%.

For `CC(O)c1ccc(C=O)o1` (centres unmarked) [Example 18, 5-(1-hydroxyethyl)furan-2-carbaldehyde], the “Cell migration rate compared to negative control (in words)” value in data set [1] is recorded as “gradually increased”. For the same molecule, in data set [1] (100 μM), the “Cell migration rate (in words)” value is given as “rather decreased”. Also, in data set [1] (24 h), the fold induction at 1 µM is around 1.7 and the fold induction at 10 µM was above 2. Besides, in data set [1] (setting [4]), the activity at 1 µM was 177 ± 25.5% and the activity at 100 µM is 167 ± 20.3%. The “Melanin content compared to negative control (in words)” value in data set [2] is “slightly increased”. The “Melanin content (in words)” value in data set [2] (100 μM) was “decreased”. For the same molecule, in data set [2] (setting [5]), the activity at 1 µM was 125 ± 3.04% and the activity at 100 µM amounted to 128 ± 4.15%.

In the case of `COC(=O)c1ccc(CO)o1` [Example 13, methyl 5-(hydroxymethyl)furan-2-carboxylate], the activity at 10 µM in data set [1] (setting [4]) stood at 161 ± 29.4%; in data set [2] (setting [5]) it was 145 ± 5.9%.

For `C=CCOC(=O)c1ccc(C=O)o1` [Example 8, allyl 5-formylfuran-2-carboxylate], the activity at 10 µM in data set [1] (setting [4]) was 178 ± 19.8%; in data set [2] (setting [5]), 122 ± 5.15%.

With `OCc1ccc(CO)o1` [Example 12, Furan-2,5-diyldimethanol], the activity at 10 µM in data set [1] (setting [4]) came out at 173 ± 29.9%; in data set [2] (setting [5]) it was 139 ± 1.6%.

Consider `CCCNC(=O)c1ccc(C=O)o1` [Example 5, 5-formyl-N-propylfuran-2-carboxamide], for which, in data set [1] (24 h), the fold induction at 10 µM is above 2. The activity at 10 µM is 229 ± 11.6% in data set [1] (setting [4]) and 94.3 ± 1.51% in data set [2] (setting [5]).

As to `CC(=O)OC(C)c1ccc(C=O)o1` (centres unmarked) [Example 19, 1-(5-formylfuran-2-yl)ethyl Acetate], in data set [1] (24 h), the fold induction at 10 µM is above 2. Moreover, the activity at 10 µM is 230 ± 25.1% in data set [1] (setting [4]) and 116 ± 3.15% in data set [2] (setting [5]).

Take `CC(O)c1ccc(CO)o1` (centres unmarked) [Example 16, 1-(5-(hydroxymethyl)furan-2-yl)ethanol]: the fold induction at 10 µM in data set [1] (24 h) is above 2. Moreover, the results for the activity at 10 µM in data set [1] (setting [4]) and in data set [2] (setting [5]) were 215 ± 13.9% and 139 ± 19.9%, respectively.

Regarding `O=Cc1ccc(C=O)o1` [Example 17, Furan-2,5-dicarbaldehyde], the activity at 10 µM in data set [1] (setting [4]) was 118 ± 21.9%; in data set [2] (setting [5]), 95.3 ± 6.49%. Besides, the “Cell viability (in words)” value is reported as “very low” in data set [3] and “low compared to when the compound of Example 1 was treated” in data set [3] (mouse). In data set [3] (mouse), the “Cell viability (%)” value worked out at 23.08 ± 5.95%. Moreover, in data set [2] (10 μM), the “Melanin content compared to negative control (in words)” value is listed as “lowered”.

Regarding `COC(=O)c1ccc(C=O)o1` [Example 10, methyl 5-formylfuran-2-carboxylate], the “Cell migration rate compared to negative control (in words)” value in data set [1] is listed as “gradually increased”. Besides, in data set [1] (24 h), the fold induction at 1 µM was around 1.9 and the fold induction at 10 µM is above 2. Further, the fold induction at 100 µM in data set [1] (24 h, 100 μM) is around 2.7. In data set [1] (setting [4]), the activity at 1 µM was 189 ± 11.4% and the activity at 100 µM turned out to be 283 ± 7.03%. Also, the Cell viability in data set [3] (mouse) is on record as at least 99%. For the same molecule, the “Melanin content compared to negative control (in words)” value in data set [2] is on record as “gradually increased”. Further, the “Melanin content (in words)” value in data set [2] (100 μM) is given as “somewhat reduced”. In addition, in data set [2] (setting [5]), the activity at 1 µM turned out to be 136 ± 5.19% and the activity at 100 µM turned out to be 159 ± 1.77%.

As to `O=Cc1ccc(C(=O)OCc2ccccc2)o1` [Example 7, Benzyl 5-formylfuran-2-carboxylate], the fold induction at 10 µM in data set [1] (24 h) is above 2. Moreover, the values for the activity at 10 µM in data set [1] (setting [4]) and in data set [2] (setting [5]) were 202 ± 61.9% and 134 ± 2.32%, respectively.

On to `CCC(OC(C)=O)c1ccc(C=O)o1` (centres unmarked) [Example 21, 1-(5-formylfuran-2-yl)propyl Acetate], for which, in data set [1] (24 h), the fold induction at 10 µM was above 2. Also, the activity at 10 µM in data set [1] (setting [4]) was found to be 260 ± 16.5%; in data set [2] (setting [5]), 115 ± 2.96%.

As to `CC(O)c1ccc(COC2CCCCO2)o1` (centres unmarked) [Example 15, 1-(5-(((tetrahydro-2H-pyran-2-yl)oxy)methyl)furan-2-yl)ethanol], the activity at 10 µM in data set [1] (setting [4]) worked out at 197 ± 33.8%; in data set [2] (setting [5]), 144 ± 4.59%.

Regarding `C=CCOCc1ccc(C=O)o1` [Example 3, 5-((allyloxy)methyl)furan-2-carbaldehyde], the figures for the activity at 10 µM in data set [1] (setting [4]) and in data set [2] (setting [5]) were 134 ± 11.7% and 95.2 ± 7.54%, respectively.

Consider `CCC(O)c1ccc(C=O)o1` (centres unmarked) [Example 20, 5-(1-hydroxypropyl)furan-2-carbaldehyde], for which the fold induction at 10 µM in data set [1] (24 h) was above 2. Besides, the activity at 10 µM in data set [1] (setting [4]) stood at 261 ± 16.8%; in data set [2] (setting [5]), 112 ± 1.5%.

With `CNC(=O)c1ccc(C=O)o1` [Example 6, 5-formyl-N-methylfuran-2-carboxamide], the results for the activity at 10 µM in data set [1] (setting [4]) and in data set [2] (setting [5]) were 139 ± 17.5% and 95.9 ± 2.87%, respectively.

On to `COC(=O)c1ccc(C(OC)OC)o1` [Example 9, methyl 5-(dimethoxymethyl)furan-2-carboxylate], for which the “Cell migration rate compared to negative control (in words)” value in data set [1] is on record as “gradually increased”. In addition, in data set [1] (24 h), the fold induction at 1 µM was around 1.9 and the fold induction at 10 µM was above 2. Further, in data set [1] (24 h, 100 μM), the fold induction at 100 µM is around 3. Besides, in data set [1] (setting [4]), the activity at 1 µM was determined as 198 ± 6.81% and the activity at 100 µM was determined as 303 ± 18.7%. Besides, in data set [3] (mouse), the Cell viability is at least 99%. Further, in data set [2], the “Melanin content compared to negative control (in words)” value is “gradually increased”. Further, in data set [2] (setting [5]), the activity at 1 µM stood at 128 ± 7.18%, the activity at 10 µM worked out at 131 ± 2.03% and the activity at 100 µM worked out at 142 ± 5.43%.

In the case of `O=C(O)c1ccc(CO)o1` [Example 14, 5-(hydroxymethyl)furan-2-carboxylic Acid], the fold induction at 10 µM in data set [1] (24 h) was above 2. For the same molecule, the activity at 10 µM in data set [1] (setting [4]) was determined as 264 ± 7.81%; in data set [2] (setting [5]), 158.4 ± 0.75%.

With `O=Cc1ccc(CO)o1` [Example 1, 5-(hydroxymethyl)furan-2-carbaldehyde], in data set [1], the “Cell migration rate (in words)” value is recorded as “decreased” and the “Cell migration rate compared to negative control (in words)” value is on record as “gradually increased”. For the same molecule, in data set [1] (24 h), the fold induction at 1 µM was determined as 2 and the fold induction at 10 µM worked out at 2.7. The fold induction at 100 µM in data set [1] (24 h, 100 μM) was around 4. In addition, in data set [1] (setting [4]), the activity at 25 µM amounted to 263 ± 12.7%, the activity at 50 µM came to 309 ± 15.5% and the activity at 1000 µM came to 253 ± 13.4%. Moreover, in data set [3] (mouse), the Cell viability is listed as at least 105%. Also, in data set [2], the “Melanin content compared to negative control (in words)” value is given as “gradually increased”. In addition, the “Melanin content (in words)” value in data set [2] (1000 μM) is given as “rather reduced”. The activity at 1000 µM in data set [2] (setting [5]) came out at 149 ± 17.4%.

With `CCOC(=O)c1ccc(CO)o1` [Example 11, ethyl 5-(hydroxymethyl)furan-2-carboxylate], the activity at 10 µM was 112 ± 13.9% in data set [1] (setting [4]) and 104 ± 4.63% in data set [2] (setting [5]).

Take `O=Cc1ccc(COCc2ccccc2)o1` [Example 2, 5-((benzyloxy)methyl)furan-2-carbaldehyde]: the figures for the activity at 10 µM in data set [1] (setting [4]) and in data set [2] (setting [5]) were 114 ± 18.9% and 82.4 ± 4.25%, respectively.

These data come from patent US20220000832A1 (priority 2019, published 2022).
